In publication PMC6222558, “Synthesis and Evolution of Berberine Derivatives as a New Class of Antiviral Agents against Enterovirus 71 through the MEK/ERK Pathway and Autophagy” (Molecules : A Journal of Synthetic Chemistry and Natural …, 2018):
Read-outs that look alike come from different tables or passages of the source.

What was measured:
[1] = tested on: EV71 BrCr strain (VR-1775, genotype A); assay: CPE inhibition assay for anti-EV71, BrCr strain; assay type: cell-based, enterovirus 71 (EV71); conditions: Enterovirus A, read-out: BrCr Strain IC50
Procedure: (§1) Thus, all newly synthesized BBR analogues were screened for their anti-EV71 potencies in African green monkey kidney (Vero) cells taking BBR as the positive control. EV71 strains used in the present study include different genotype strains, such as H strain (VR-1432, genotype C2), BrCr strain (VR-1775, genotype A), and JS-52 and SHZH98 (genotype C4). The potency against EV71 strains above mentioned of each tested compound was evaluated by the combination of its IC50 and selectivity index (SI) value as the important therapeutic indication.
(§2) Vero cells were purchased from the American Type Culture Collection (ATCC, […], MD, USA), and were cultured in Minimum Essential Medium (MEM) supplemented with 10% fetal bovine serum (FBS) (GIBCO, Grand Island, NY, USA) and antibiotics (100 U/mL penicillin and […] streptomycin) at 37 °C in a 5% CO2 incubator. EV71 strain SHZH98 isolated from the throat swab sample of an HFMD case occurring in 1998 in China was kindly provided by Dr. Qi Jin (Institute of Pathogen Biology, Chinese Academy of Medical Science and Peking Union Medical School, Beijing, China), and JS-52 strain was a kind gift from Dr. Xiangzhong Ye (Beijing Wantai Biological Pharmacy Enterprise Co., Ltd., Beijing, China). The EV71 BrCr and H strains were purchased from the ATCC. All of EV71 strains were passaged in Vero cells.
(§3) The anti-EV71 activities of all tested compounds were detected by the virus-induced CPE assay. Briefly, cells (3 × 10^4 cells/well) were plated into 96-well culture plates and incubated for 16 h. Then, remove the medium and infected cells with EV71 of 100 × TCID50 (50% tissue culture infective doses) in serum-free medium for 1 h at 37 °C. After that, the unbound viruses were removed and various concentrations of tested compounds were supplemented for incubation of another 72 h. […] TC50 defined as the concentration that leads to the 50% of CPE which determined by the same method in 72 h. In addition, the cells were stained the cells were colored with 0.5% crystal violet in 20% ethanol for 15 min at room temperature and the cells were imaged after rinsed with PBS.

[2] = tested on: EV71 H strain (VR-1432, genotype C2); assay: CPE inhibition assay for anti-EV71, H strain; assay type: cell-based, enterovirus 71 (EV71); conditions: for IC50: Enterovirus A, read-out: H Strain IC50; for anti-EV71 activity against H strain, in words: compared with BBR
Procedure: as §1, §2, §3

[3] = tested on: EV71 JS-52 strain (genotype C4); assay: CPE inhibition assay for anti-EV71, JS-52 strain; assay type: cell-based, enterovirus 71 (EV71); conditions: Enterovirus A, read-out: JS-52 Strain IC50
Procedure: as §1, §2, §3

[4] = tested on: Vero cells; assay: Cytotoxicity assay (CCK) in Vero cells; assay type: cell-based, African green monkey; conditions: African green monkey, 48 h
Procedure: as §2
Cytotoxicity of all target compounds in Vero cells was analyzed by CCK (TransGen Biotech, Beijing, China) assay. In brief, cells in exponential phase (3 × 10^4 cells/well) were seeded into 96-well culture plates and incubated overnight. Then, the medium was removed and different concentrations of all target compounds were applied in duple. After 48 h incubation, the cytotoxicity of all target compounds was determined by CCK assay. The signals were read at 450 nm on Enspire (Perkin Elmer, Waltham, MA, USA). The TC50 was defined as the concentration that inhibits 50% cellular growth in comparison with the controls. It is calculated by the Reed and Muench method.

[5] = tested on: EV71 SHZH98 strain (genotype C4); assay: CPE inhibition assay for anti-EV71, SHZH98 strain; assay type: cell-based, enterovirus 71 (EV71); conditions: Enterovirus A, read-out: SHZH98 Strain IC50
Procedure: as §1, §2, §3

[6] = EV71, Vero cells, CPE, calculated on the organic part, n = 3

Structure (SMILES) | IC50 [1, 6] | IC50 [2, 6] | IC50 [3, 6] | TC50 (median toxic concentration) [4] | IC50 [5, 6] | anti-EV71 activity against H strain, in words ([2]; Vero cells) | IC50 ([1]; EV71, Vero) | IC50 ([2]; EV71, Vero) | IC50 ([3]; EV71, Vero) | IC50 ([5]; EV71, Vero)
CCOC(=O)COc1c(OC)ccc2cc3[n+](cc12)CCc1cc2c(cc1-3)OCO2 [2a, 2,3-Methylenedioxy-9-ethyloxyformylmethylenoxy-10-methoxy protoberberine chloride] | 32.3 µM | 48.3 µM | 45.5 µM | 223 µM | 60.4 µM |  |  |  |  | 
COc1cc2c(cc1OC(=O)OCc1ccccc1)CC[n+]1cc3c(OC)c(OC)ccc3cc1-2 [5g, 2,9,10-Trimethoxy-3-benzyloxyformyloxy protoberberine chloride] | 82.8 µM | 143 µM | 51.3 µM | 265 µM | 86.7 µM | partially or completely lost |  |  |  | 
COc1ccc2cc3[n+](cc2c1OC(=O)OCc1ccccc1)CCc1cc2c(cc1-3)OCO2 [2h, 2,3-Methylenedioxy-9-benzyloxyformyloxy-10-methoxy protoberberine chloride] | 47.9 µM | > 47.9 µM | > 47.9 µM | 124 µM | > 47.9 µM | obvious decreased activity |  |  |  | 
COc1cccc(C(=O)COc2c(OC)ccc3cc4[n+](cc23)CCc2cc3c(cc2-4)OCO3)c1 [2f, 2,3-Methylenedioxy-9-m-methoxyphenylformylmethylenoxy-10-methoxy protoberberine chloride] | 2.21 µM | > 5.33 µM | 1.61 µM | 9.22 µM | 1.85 µM |  |  |  |  | 
COc1cccc(C(=O)COc2c(OC)ccc3cc4[n+](cc23)CCc2cc(OC)c(OC)cc2-4)c1 [4e, 2,3,10-Trimethoxy-9-m-methoxyphenylformylmethylenoxy protoberberine chloride] | 17.1 µM | 13.6 µM | 19.4 µM | 143 µM | 27.6 µM | comparable activity to BBR |  |  |  | 
COc1cc2c(cc1OCC(=O)C(C)(C)C)CC[n+]1cc3c(OC)c(OC)ccc3cc1-2 [5b, 2,9,10-Trimethoxy-3-pivalylmethylenoxy protoberberine chloride] | 34.2 µM | 41.3 µM | 34.2 µM | 83.3 µM | 69.3 µM |  |  |  |  | 
COc1cc2c(cc1OC)-c1cc3ccc(OC)c(O)c3c[n+]1CC2 [compound 3] | 135 µM | 121 µM | 102 µM | 254 µM | 132 µM | decreased activity |  |  |  | 
COc1ccc2cc3[n+](cc2c1OCC(=O)c1ccc(C)cc1)CCc1cc2c(cc1-3)OCO2 [2e, 2,3-Methylenedioxy-9-p-tolylformylmethylenoxy-10-methoxy protoberberine chloride] | 2.23 µM | > 5.31 µM | 2.67 µM | 14.4 µM | 2.84 µM |  |  |  |  | 
COc1ccc2cc3[n+](cc2c1OCC(=O)O)CCc1cc2c(cc1-3)OCO2 [2d-a, 2,3-Methylenedioxy-9-carboxylmethylenoxy-10-methoxy protoberberine chloride] | 145 µM | > 145 µM | 145 µM | 437 µM | > 145 µM | complete loss on the antivirus potency |  |  |  | 
COc1cc2c(cc1OC)-c1cc3ccc(OC)c(OCC(=O)c4ccc(C(F)(F)F)cc4)c3c[n+]1CC2 [4f, 2,3,10-Trimethoxy-9-p-trifloromethylphenylformylmethylenoxy protoberberine chloride] | 66 µM | 82.2 µM | 54.2 µM | 306 µM | 82.2 µM |  |  |  |  | 
COc1ccc2cc3[n+](cc2c1OCC(=O)C(C)(C)C)CCc1cc2c(cc1-3)OCO2 [2c, 2,3-Methylenedioxy-9-pivalylmethylenoxy-10-methoxy protoberberine chloride] | 4.26 µM | 13.8 µM | 7.26 µM | 27.9 µM | 8.59 µM |  |  |  |  | 
COc1cc2c(cc1OCC(=O)c1ccc(C(F)(F)F)cc1)CC[n+]1cc3c(OC)c(OC)ccc3cc1-2 [5f, 2,9,10-Trimethoxy-3-p-trifloromethylphenylformylmethylenoxy protober berine chloride] | 25.4 µM | 40.4 µM | 27 µM | 143 µM | 68.4 µM | partially or completely lost |  |  |  | 
COc1cc2c(cc1O)CC[n+]1cc3c(OC)c(OC)ccc3cc1-2 [JTH, jatrorrhizine, reference compound] |  |  |  | 255 µM |  | decreased activity | > 147 µM | > 147 µM | 147 µM | 147 µM
COc1ccc2cc3[n+](cc2c1OCC(=O)OCC(C)C)CCc1cc2c(cc1-3)OCO2 [2b, 2,3-Methylenedioxy-9-isobutyloxyformylmethylenoxy-10-methoxy protoberberine chloride] | 2.04 µM | > 5.34 µM | 5.73 µM | 22.3 µM | 5.46 µM |  |  |  |  | 
COc1cc2c(cc1OC)-c1cc3ccc(OC)c(OCC(=O)OCc4ccccc4)c3c[n+]1CC2 [4c, 2,3,10-Trimethoxy-9-benzyloxyformylmethylenoxy protoberberine chloride] | 81.1 µM | > 143 µM | 99.3 µM | 452 µM | > 143 µM |  |  |  |  | 
COc1ccc2cc3[n+](cc2c1OCC(=O)c1ccc(C(F)(F)F)cc1)CCc1cc2c(cc1-3)OCO2 [2g, 2,3-Methylenedioxy-9-p-trifloromethylphenylformylmethylenoxy-10-methoxy protoberberine chloride] | 10.6 µM | 15.8 µM | 11.9 µM | 54.9 µM | 12.3 µM |  |  |  |  | 
COc1cc2c(cc1OCC(=O)OCc1ccccc1)CC[n+]1cc3c(OC)c(OC)ccc3cc1-2 [5c, 2,9,10-Trimethoxy-3-benzyloxyformylmethylenoxy protoberberine chloride] | 44.1 µM | 93.7 µM | 101 µM | 248 µM | 123 µM |  |  |  |  | 
CCOC(=O)COc1cc2c(cc1OC)-c1cc3ccc(OC)c(OC)c3c[n+]1CC2 [5a, 2,9,10-Trimethoxy-3-ethyloxyformylmethylenoxy protoberberine chloride] | 125 µM | 130 µM | 109 µM | 250 µM | 144 µM |  |  |  |  | 
COc1cc2c(cc1OCC(=O)c1ccc(C)cc1)CC[n+]1cc3c(OC)c(OC)ccc3cc1-2 [5d, 2,9,10-Trimethoxy-3-p-methylphenylformylmethylenoxy protoberberine chloride] | > 15.9 µM | > 15.9 µM | 9.01 µM | 41.0 µM | 12 µM |  |  |  |  | 
COc1cc2c(cc1OC)-c1cc3ccc(OC)c(OCC(=O)c4ccc(C)cc4)c3c[n+]1CC2 [4d, 2,3,10-Trimethoxy-9-p-tolylformylmethylenoxy protoberberine chloride] | 44.2 µM | > 15.9 µM | 44.2 µM | 50.0 µM | > 47.8 µM |  |  |  |  | 
